The values that follow come from US7087631B2, “Aryltetrazole compounds, and compositions thereof” (Inotek Pharmaceuticals Corporation, priority 2002, dated 2006).

Experiment [1] has as its system thioacetamide model of hepatic failure. Nature of the experiment: Toxic liver injury model (thioacetamide model of hepatic failure), serum AST. Type of experiment: in vivo. Particulars: mice; for serum AST levels (result in words): summary of the table; for Percent Inhibition of Serum AST Levels: thioacetamide 400 mg/kg i.p., mean ±SEM (n=7-10). As for the experimental part: Illustrative 5-Aryltetrazole Compounds exert hepatoprotective effects in a thioacetamide model of hepatic failure. […] […] Results are expressed as percent inhibtion, mean ±SEM (n=7-10). Studies were conducted as described in Biochim. Biophys. Acta. 1536(1):21-30 (2001).

Another experiment concerns the target xanthine oxidase (Homo sapiens, UniProt P47989). Put plainly: Xanthine oxidase inhibitory activity, 96 well plate, kinetic reading at 295 nm. It is filed as biochemical.
For a further experiment, the system named is gut ischemia reperfusion. Nature of the experiment: Gut ischemia reperfusion-induced hyperpermeability and mortality. Particulars: mice; for Survival % (6 h): 6 hours of reperfusion, control 60; for Survival % (2 days): 2 days of reperfusion, control 0; for Gut Permeability: intraperitoneal, control 100%. It is filed as in vivo. How it is done: Illustrative 5-Aryltetrazole Compounds exert protective effects in various models of organ ischemia and reperfusion. For example, intraperitoneal administration of illustrative 5-Aryltetrazole Compounds retards the progression of gut ischemia reperfusion-induced hyperpermeability and mortality in mice. Results are expressed as % decrease in gut hyperpermeability and as mortality as observed after 6 hours and 2 days of reperfusion. Studies were conducted as described in Shock, 14(2): 134-141 (2000). There was a notable dose-dependent effect on gut hyperpermeability and there was an improvement in survival rate, as tested at the highest dose of both levels.

For experiment [2], the system named is collagen-induced arthritis. Nature of the experiment: Collagen-induced arthritis. It is filed as in vivo. Particulars: mice; for % Incidence / Mean Severity: collagen-induced arthritis. How it is done: An illustrative 5-Aryltetrazole Compound exerts protective effects in a model of collagen-induced arthritis in mice. Results are expressed as incidence and severity over time. Studies were conducted as described in Inflamm. Res. 50(11):561-569 (2001). The results illustrate that the administration of Compound JO, an illustrative 5-Aryltetrazole Compound, reduced incidence of collagen-induced arthritis in mice.

The subject of another experiment is severe hemorrhagic shock. Particulars: canine, cited from earlier work; for benefit (survival): given alone after shock had been produced.
The test system of a further experiment is hemorrhagic shock. Particulars: canine model of hemorrhagic shock; cited from earlier work.

xanthine oxidase, sequence (P47989 whole entry, species assumed, the tested form may be a part): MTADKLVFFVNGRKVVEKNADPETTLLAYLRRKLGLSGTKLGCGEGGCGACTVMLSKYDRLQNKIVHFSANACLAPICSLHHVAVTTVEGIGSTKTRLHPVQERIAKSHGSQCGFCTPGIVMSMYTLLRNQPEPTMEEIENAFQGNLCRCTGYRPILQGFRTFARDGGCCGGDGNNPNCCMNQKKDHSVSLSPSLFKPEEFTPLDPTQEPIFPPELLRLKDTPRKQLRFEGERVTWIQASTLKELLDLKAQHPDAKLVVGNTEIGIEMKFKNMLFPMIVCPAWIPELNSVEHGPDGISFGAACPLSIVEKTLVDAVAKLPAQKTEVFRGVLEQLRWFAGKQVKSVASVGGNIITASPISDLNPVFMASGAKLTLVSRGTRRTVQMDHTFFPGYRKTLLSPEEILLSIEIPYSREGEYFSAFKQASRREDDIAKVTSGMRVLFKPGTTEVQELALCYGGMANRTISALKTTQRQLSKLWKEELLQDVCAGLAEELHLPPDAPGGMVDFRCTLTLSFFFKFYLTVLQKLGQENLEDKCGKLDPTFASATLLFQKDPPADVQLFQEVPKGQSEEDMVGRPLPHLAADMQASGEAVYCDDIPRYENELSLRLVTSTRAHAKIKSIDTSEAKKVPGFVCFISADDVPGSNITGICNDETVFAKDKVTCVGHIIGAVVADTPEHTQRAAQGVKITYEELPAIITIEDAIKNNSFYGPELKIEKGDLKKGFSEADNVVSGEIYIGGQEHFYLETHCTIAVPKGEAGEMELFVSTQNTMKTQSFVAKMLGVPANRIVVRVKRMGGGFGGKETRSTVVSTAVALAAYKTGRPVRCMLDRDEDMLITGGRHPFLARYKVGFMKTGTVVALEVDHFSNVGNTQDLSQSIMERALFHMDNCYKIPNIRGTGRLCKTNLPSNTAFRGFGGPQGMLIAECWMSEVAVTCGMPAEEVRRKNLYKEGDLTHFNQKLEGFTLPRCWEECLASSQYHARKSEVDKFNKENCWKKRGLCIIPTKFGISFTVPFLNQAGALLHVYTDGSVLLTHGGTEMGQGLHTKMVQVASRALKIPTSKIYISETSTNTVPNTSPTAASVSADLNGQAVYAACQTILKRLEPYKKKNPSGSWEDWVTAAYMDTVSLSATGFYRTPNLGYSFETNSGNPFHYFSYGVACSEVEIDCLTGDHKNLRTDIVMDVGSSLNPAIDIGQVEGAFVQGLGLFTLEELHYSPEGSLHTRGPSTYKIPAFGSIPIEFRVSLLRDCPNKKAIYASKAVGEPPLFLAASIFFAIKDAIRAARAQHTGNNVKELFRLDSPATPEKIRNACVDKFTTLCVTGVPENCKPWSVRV

In the case of `O=C(Nc1ccccc1)c1ccc(-c2nn[nH]n2)cc1` [Compound IC], the “serum AST levels (result in words)” value in experiment [1] is listed as “inhibit serum AST levels”. Besides, the entries for the “Percent Inhibition of Serum AST Levels” value in experiment [1] (single oral dose 3 mg/kg) and in experiment [1] (single oral dose 10 mg/kg) were 3 ± 8% and 20 ± 5%, respectively. Further, the “PERCENT XANTHINE OXIDASE INHIBITION” value on xanthine oxidase (compound concentration 0.03 μM) is on record as 60%; on xanthine oxidase (compound concentration 0.1 μM), 81%; on xanthine oxidase (compound concentration 1 μM), 100%.

For the molecule `CC(C)Cc1ccc(NC(=O)c2ccc(-c3nnn[nH]3)cc2)cc1` [Compound IG], the “serum AST levels (result in words)” value in experiment [1] is reported as “inhibit serum AST levels”. The “Percent Inhibition of Serum AST Levels” value in experiment [1] (single oral dose 3 mg/kg) was 25 ± 4%; in experiment [1] (single oral dose 10 mg/kg), 46 ± 8%. In addition, the “PERCENT XANTHINE OXIDASE INHIBITION” value on xanthine oxidase (compound concentration 0.03 μM) was 33%; at xanthine oxidase (compound concentration 0.1 μM), 59%; on xanthine oxidase (compound concentration 1 μM) it was 93%. Moreover, the “Survival % (6 h)” value with gut ischemia reperfusion (30 mg/kg) came out at 87%. In addition, in the experiment with gut ischemia reperfusion (30 mg/kg), the “Survival % (2 days)” value worked out at 20%. In addition, the “Gut Permeability” value was found to be 73% with gut ischemia reperfusion (3 mg/kg), 69% in the experiment on gut ischemia reperfusion (10 mg/kg) and 47% in the experiment on gut ischemia reperfusion (30 mg/kg).

Turning to `CC(C)c1ccc(NC(=O)c2ccc(-c3nnn[nH]3)cc2)cc1` [Compound IP], the “serum AST levels (result in words)” value in experiment [1] is “inhibit serum AST levels”. Besides, the results for the “Percent Inhibition of Serum AST Levels” value in experiment [1] (single oral dose 3 mg/kg) and in experiment [1] (single oral dose 10 mg/kg) were 23 ± 8% and 41 ± 8%, respectively. For the same molecule, the “PERCENT XANTHINE OXIDASE INHIBITION” value at xanthine oxidase (compound concentration 0.03 μM) worked out at 28%; on xanthine oxidase (compound concentration 0.1 μM) it was 52%; on xanthine oxidase (compound concentration 1 μM) it was 92%.

Regarding `O=C(O)c1ccc(NC(=O)c2ccc(-c3nnn[nH]3)cc2)cc1` [Compound IS], in experiment [1], the “serum AST levels (result in words)” value is listed as “inhibit serum AST levels”. For the same molecule, the “Percent Inhibition of Serum AST Levels” value in experiment [1] (single oral dose 10 mg/kg) is recorded as 33 ± 5%. Moreover, the results for the “PERCENT XANTHINE OXIDASE INHIBITION” value on xanthine oxidase (compound concentration 0.03 μM), on xanthine oxidase (compound concentration 0.1 μM) and at xanthine oxidase (compound concentration 1 μM) were 44%, 68% and 97%, respectively.

On to `Cc1ccc(NC(=O)c2ccc(-c3nnn[nH]3)cc2)cc1` [Compound JN], for which the “Percent Inhibition of Serum AST Levels” value in experiment [1] (single oral dose 3 mg/kg) was 11 ± 7%; in experiment [1] (single oral dose 10 mg/kg), 31 ± 7%. Further, the entries for the “PERCENT XANTHINE OXIDASE INHIBITION” value on xanthine oxidase (compound concentration 0.03 μM), at xanthine oxidase (compound concentration 0.1 μM) and on xanthine oxidase (compound concentration 1 μM) were 20%, 41% and 88%, respectively.

Consider `CC(C)(C)c1ccc(NC(=O)c2ccc(-c3nnn[nH]3)cc2)cc1` [Compound JO], for which the “Percent Inhibition of Serum AST Levels” value in experiment [1] (single oral dose 3 mg/kg) was found to be 24 ± 9%; in experiment [1] (single oral dose 10 mg/kg) it was 36 ± 12%. Besides, the figures for the “PERCENT XANTHINE OXIDASE INHIBITION” value at xanthine oxidase (compound concentration 0.03 μM), at xanthine oxidase (compound concentration 0.1 μM) and at xanthine oxidase (compound concentration 1 μM) were 18%, 36% and 83%, respectively. Also, the “incidence of collagen-induced arthritis (result in words)” value in experiment [2] (after 33 days, versus untreated mice) is “significant decrease”. For the same molecule, the “% Incidence” value worked out at 20% in experiment [2] (day 25); 35% in experiment [2] (day 27); 45% in experiment [2] (day 29); 75% in experiment [2] (day 31); 85% in experiment [2] (day 33). Also, the “Mean Severity” value in experiment [2] (day 25) was found to be 0; in experiment [2] (day 27) it was 0; in experiment [2] (day 29), 3; in experiment [2] (day 31) it was 8; in experiment [2] (day 33), 8. Moreover, in experiment [2] (summary), the “collagen-induced arthritis (result in words)” value was “inhibits collagen-induced arthritis”. Besides, the “Survival % (6 h)” value in the experiment on gut ischemia reperfusion (30 mg/kg) amounted to 87%. In the experiment with gut ischemia reperfusion (30 mg/kg), the “Survival % (2 days)” value is 13%. Also, the “Gut Permeability” value in the experiment on gut ischemia reperfusion (30 mg/kg) stood at 39%.

As to `O=C(Nc1ccc(Cl)cc1)c1ccc(-c2nnn[nH]2)cc1` [IX], the “serum AST levels (result in words)” value in experiment [1] was “inhibit serum AST levels”. Besides, the “Percent Inhibition of Serum AST Levels” value in experiment [1] (single oral dose 10 mg/kg) came to 31 ± 1%. Also, the “PERCENT XANTHINE OXIDASE INHIBITION” value on xanthine oxidase (compound concentration 0.03 μM) was found to be 46%; at xanthine oxidase (compound concentration 0.1 μM), 74%; on xanthine oxidase (compound concentration 1 μM), 98%.

Turning to `COc1cc(-c2nnn[nH]2)ccc1OCC(C)C` [JD], the “PERCENT XANTHINE OXIDASE INHIBITION” value on xanthine oxidase (compound concentration 0.1 μM) was found to be 0%; on xanthine oxidase (compound concentration 1 μM) it was 28%.

As to `N#Cc1cc(-c2nnn[nH]2)ccc1C(=O)Nc1ccccc1` [JF], the “PERCENT XANTHINE OXIDASE INHIBITION” value is reported as 6% at xanthine oxidase (compound concentration 0.1 μM) and 34% on xanthine oxidase (compound concentration 1 μM).

Take `N#Cc1cc(-c2nnn[nH]2)ccc1C(=O)Nc1ccncc1` [JG]: the “PERCENT XANTHINE OXIDASE INHIBITION” value on xanthine oxidase (compound concentration 0.03 μM) stood at 33%; at xanthine oxidase (compound concentration 0.1 μM) it was 61%; at xanthine oxidase (compound concentration 1 μM), 93%.

Take `N#Cc1cc(-c2nnn[nH]2)ccc1C(=O)Nc1cccnc1` [JH]: the results for the “PERCENT XANTHINE OXIDASE INHIBITION” value on xanthine oxidase (compound concentration 0.03 μM), on xanthine oxidase (compound concentration 0.1 μM) and on xanthine oxidase (compound concentration 1 μM) were 23%, 41% and 86%, respectively.

In the case of `N#Cc1cc(-c2nnn[nH]2)ccc1C(=O)Nc1nccs1` [JI], the “PERCENT XANTHINE OXIDASE INHIBITION” value at xanthine oxidase (compound concentration 0.03 μM) stood at 19%; at xanthine oxidase (compound concentration 0.1 μM) it was 30%; on xanthine oxidase (compound concentration 1 μM) it was 79%.

With `O=C(Nc1ccccc1)c1ccc(-c2nnn[nH]2)cc1Cl` [JJ], on xanthine oxidase (compound concentration 1 μM), the “PERCENT XANTHINE OXIDASE INHIBITION” value worked out at 0%.

On to `Cc1cc(C(=O)Nc2ccccc2)ccc1-c1nnn[nH]1` [JK], for which the “PERCENT XANTHINE OXIDASE INHIBITION” value at xanthine oxidase (compound concentration 1 μM) is reported as 0%.

`O=C(Nc1ccc(Cl)c(Cl)c1)c1ccc(-c2nnn[nH]2)cc1` [JL]: the entries for the “PERCENT XANTHINE OXIDASE INHIBITION” value on xanthine oxidase (compound concentration 0.03 μM), at xanthine oxidase (compound concentration 0.1 μM) and on xanthine oxidase (compound concentration 1 μM) were 34%, 68% and 95%, respectively.

`CCc1ccc(NC(=O)c2ccc(-c3nnn[nH]3)cc2)cc1` [JM]: the “Percent Inhibition of Serum AST Levels” value in experiment [1] (single oral dose 3 mg/kg) turned out to be 12 ± 7%; in experiment [1] (single oral dose 10 mg/kg), 31 ± 7%. The “PERCENT XANTHINE OXIDASE INHIBITION” value on xanthine oxidase (compound concentration 0.03 μM) was 16%; on xanthine oxidase (compound concentration 0.1 μM), 38%; at xanthine oxidase (compound concentration 1 μM) it was 89%.

As to `CC(C)COc1ccc(-c2nnn[nH]2)cc1` [JP], the “PERCENT XANTHINE OXIDASE INHIBITION” value on xanthine oxidase (compound concentration 0.03 μM) is 46%; at xanthine oxidase (compound concentration 0.1 μM), 74%; at xanthine oxidase (compound concentration 1 μM), 98%.

Turning to `O=C(OCc1ccccc1I)c1ccc(-c2nnn[nH]2)cc1` [JQ], the “PERCENT XANTHINE OXIDASE INHIBITION” value at xanthine oxidase (compound concentration 0.01 μM, 0.01 µM) worked out at 18%; on xanthine oxidase (compound concentration 0.1 μM, 0.1 µM), 89%; at xanthine oxidase (compound concentration 1 μM), 100%.

As to `COc1ccc2cc(-c3nnn[nH]3)ccc2c1` [JR], the “PERCENT XANTHINE OXIDASE INHIBITION” value on xanthine oxidase (compound concentration 1 μM) stood at 14%; on xanthine oxidase (compound concentration 10 μM), 56%; on xanthine oxidase (compound concentration 100 μM), 85%.

Turning to `Oc1ncnc2[nH]ncc12` [allopurinol], the “benefit (survival)” value with severe hemorrhagic shock is on record as “no benefit”. Also, the increase in survival in the experiment with severe hemorrhagic shock (pre-treatment) is reported as 6 fold. Moreover, the “survival (result in words)” value in the experiment on hemorrhagic shock is on record as “significantly improved survival”.

`O=c1[nH]cnc2nc[nH]c12` [hypoxanthine]: the “benefit (survival)” value in the experiment on severe hemorrhagic shock is on record as “no benefit”.
